Data on four compounds can be found in patent publication US20210147544A1, “METHODS AND COMPOSITIONS FOR TARGETED DELIVERY OF ACTIVE AGENTS AND IMMUNOMODULATORY AGENTS TO LYMPH NODES” (IMMUNOVACCINE TECHNOLOGIES INC., priority 2018, published 2021).

For one data set, the system named is lymph node cells. The data set is classed as in vivo, C57BL/6 mice. The following applies: group E: 20 mg/kg/day CPA in drinking water for seven days before FP/PolyI:C composition; vs group F. The method, then:
Pathogen free, C57BL/6 mice, 6-8 weeks of age, were purchased from Charles River Laboratories (St. Constant, PQ) and housed according to institutional guidelines with water and food ad libitum under filter controlled air circulation.
Mice in group A (n=5) were injected in the right flank with 50 microliters of the CPA composition containing 0.04 milligrams of CPA and injected in the left flank with 50 microliters of the FP/DNA based PolyI:C polynucleotide composition containing 10 micrograms of FP and 20 micrograms of DNA based polyl:C polynucleotide adjuvant.
Mice in group B (n=5) were injected in the right flank with 50 microliters of the CPA composition containing 0.4 milligrams of CPA and injected in the left flank with 50 microliters of the FP/DNA based PolyI:C polynucleotide composition containing 10 micrograms of FP and 20 micrograms of DNA based polyl:C polynucleotide adjuvant.
Mice in group C (n=5) were injected in the right flank with 50 microliters of the CPA/FP/PolyI:C composition containing 0.04 milligrams of CPA and 10 micrograms of FP and 20 micrograms of DNA based polyI:C polynucleotide adjuvant.
Mice in group D (n=5) were injected in the right flank with 50 microliters of the CPA/FP/PolyI:C composition containing 0.4 milligrams of CPA and 10 micrograms of FP and 20 micrograms of DNA based polyI:C polynucleotide adjuvant. […]

Data set [1] is described as follows: Photographs of plasma, skin and draining lymph node after EVB injection. Format: in vivo, C57B1/6 mice. As for the experimental part:
(§1) C57B1/6 mice (n=3 per time point) were injected subcutaneously on study day 0 with 1 mg of Evans Blue (EVB) dye formulated either in a composition of the invention (DPX, group 1) or in an aqueous solution (group 2). Control groups were injected subcutaneously with DPX not containing EVB (group 3) or not given an injection (group 4). DPX compositions were prepared according to the methods detailed in Example 1. The freeze-dried vial was reconstituted in Montanide® ISA 51 VG (SEPPIC, France). Cells were collected from the vaccine-draining lymph nodes (LN), blood, liver, and spleen from 2-3 mice of each group on study days 1, 2, 5, and 7, and the cells were stained to detect different cell populations by flow cytometry.

Data set [2] in a line: Evans Blue (EVB) positive cells in LN, blood, liver, spleen by flow cytometry. The data set is classed as in vivo, C57B1/6 mice. As for the experimental part: as §1
EVB (MW 960.81 g/mol) is a membrane impermeant dye with high affinity for serum albumin that can penetrate into non-viable cells or be actively internalized by phagocytic cells, such as macrophages and dendritic cells.

A short description of data set [3]: Body weights of C3 tumour mice during EPA treatment. Format: in vivo. Conditions: all with mCPA (PO), oral EPA given with DPX-FP. As for the experimental part: Mice (n=8 per group) were implanted with C3 cancer cells on study day 0. Mice in all treatment groups were treated with 0.4 mg metronomic cyclophosphamide (mCPA) daily for seven days through drinking water starting on study day 7 and 21 (oral administration: PO). One group was untreated as a control. One treatment group was treated with epacadostat (EPA) through oral gavage 6 mg/day for five days starting on study day 14 for a total EPA dose of 30 mg over 5 days. Mice were treated with a composition of the invention (DPX) containing either FP alone (DPX-FP) or FP in combination with EPA (DPX-FP/EPA, 1 mg EPA). DPX was administered by subcutaneous injection to the treatment groups on study day 14 and 28, for a total EPA dose of 2mg over […] in the group receiving DPX-FP/EPA. The DPX compositions were prepared according to the methods detailed in Example 1. All DPX-FP and DPX-FP/EPA formulations contained 20 micrograms of DNA based PolyI:C polynucleotide adjuvant. The freeze-dried vials were reconstituted in 0.7 mL of Montanide® ISA 51 VG (SEPPIC, France) to obtain a clear solution (FIG. 1; Panel D).

The nature of data set [4]: AlexaFluor488 (AF488) positive cells in LN, blood, liver, spleen by flow cytometry. The data set is classed as in vivo, C57B1/6 mice. The method, then:
as §1, with “mice (n=2-3” for “mice (n=3”, “with 0.1” for “with 1”, “of AlexaFluor488 hydrazide (AF488)” for “of Evans Blue (EVB)”, “containing AF488” for “containing EVB”
AF488 (MW 773.91 g/mol) is a membrane impermeant fluorescent dye that can be actively internalized by phagocytic cells, such as macrophages and dendritic cells.
A general note: A flow cytometer gives signals particle by particle.

Where [5] appears, read: 1 mg EVB s.c., days 1, 2, 5, 7, significance compared to group 3.
Setting [6] is: by day 2, including CD3+ T cells.
Setting [7] is: 0.1 mg AF488 s.c., days 1, 2, 5, 7, significance compared to group 3.

Consider `O=P1(N(CCCl)CCCl)NCCCO1` (centres unmarked) [CPA, N,N-bis(2-chloroethyl)-1,3,2-oxazaphosphinan-2-amine 2-oxide], for which the “total lymph node cell counts” value in the data set with lymph node cells is “significantly lower cell counts compared to group F”.

As to `Cc1cc(-c2ccc(/N=N/c3ccc4c(S(=O)(=O)O)cc(S(=O)(=O)O)c(N)c4c3O)c(C)c2)ccc1/N=N/c1ccc2c(S(=O)(=O)O)cc(S(=O)(=O)O)c(N)c2c1O` [EVB in aqueous solution, Evans Blue], the “blue colouration of skin, injection site and draining LN (FIG. 13)” value in data set [1] (1 mg EVB s.c.) was “turned blue”. In data set [1] (days 1, 2, 5, and 7 after injection), the “colour of plasma (FIG. 12)” value is reported as “dark blue”. Also, the “EVB+ CD11c+ dendritic cells in the liver” value in data set [2] (1 mg EVB s.c.) is “a large number dendritic cells were EVB+ by day 2”. In addition, in data set [2] (setting [5]), the “EVB+ CD11b+ cells in the LN (FIG. 10A)” value was “significant number of EVB^+ CD11b^+ cells on all days tested”, the “EVB+ CD11b+ cells in the blood (FIG. 10D)” value is reported as “significant number of EVB^+ CD11b^+ cells on all days tested”, the “EVB+ CD11b+ cells in the liver (FIG. 10G)” value is “significant number of EVB^+ CD11b^+ cells on all days tested” and the “EVB+ CD11b+ cells in the spleen (FIG. 10J)” value was “significant number of EVB^+ CD11b^+ cells on all days tested”. Further, in data set [2] (setting [5]), the “EVB+ T cells in the LN (FIG. 10C)” value is reported as “significant number of EVB^+ T cells on all days tested”, the “EVB+ T cells in the blood (FIG. 10F)” value is recorded as “significant number of EVB^+ T cells on all days tested”, the “EVB+ T cells in the liver (FIG. 10I)” value was “significant number of EVB^+ T cells on all days tested” and the “EVB+ T cells in the spleen (FIG. 10L)” value is “significant number of EVB^+ T cells on all days tested”. In data set [2] (setting [5]), the “EVB+ dendritic cells in the LN (FIG. 10B)” value is listed as “significant number of EVB^+ dendritic cells on all days tested”; the “EVB+ dendritic cells in the blood (FIG. 10E)” value is “significant number of EVB^+dendritic cells on all days tested”; the “EVB+ dendritic cells in the liver (FIG. 10H)” value was “significant number of EVB^+ dendritic cells on days 2 and 7”; the “EVB+ dendritic cells in the spleen (FIG. 10K)” value is reported as “significant number of EVB^+dendritic cells on all days tested”. Further, in data set [2] (1 mg EVB s.c., days 1 to 7), the “EVB release into and clearance from the LN (FIGS. 10A-C)” value is reported as “had still not been cleared from the LN by day 7”; the “EVB release into and clearance from the blood (FIGS. 10D-F)” value is given as “still not been cleared from the blood by day 7”; the “EVB release into and clearance from the spleen (FIGS. 10J-L)” value is “still saturated in CD11b+ macrophages and T cells by day 7”; the “saturation of cell types in the blood with EVB” value was “CD11b+ macrophages and CD3+ T cells that were still nearly saturated on day 7”. The “macrophages and T cells EVB+ in the liver” value in data set [2] (by day 1-2) is given as around 100%. For the same compound, the “cells EVB+ in the spleen” value in data set [2] (by day 1-2, including CD3+ T cells) is around 100%. In data set [2] (setting [6]), the “cells EVB+ in the LN” value was around 100% and the “cells EVB+ in the blood” value was around 100%.

Take `NS(=O)(=O)NCCNc1nonc1C(=NO)Nc1ccc(F)c(Br)c1` [oral EPA (PO), epacadostat]: the “weight loss during treatment (body weights)” value in data set [3] is reported as “significant weight loss during treatment”.

Regarding “AlexaFluor488 hydrazide [AF488 in aqueous solution]”, in data set [4] (0.1 mg AF488 s.c.), the “AF488 release into the blood (FIGS. 11D-F)” value is “quickly peaked at day 1”; the “release of AF488 into the spleen (FIGS. 11G-I)” value is “rapid and significant release of AF488 into the spleen in all cell types”. Also, in data set [4] (setting [7]), the “AF488+ CD11b+ cells in the LN (FIG. 11A)” value was “significant number of AF488^+CD11b^+ cells on days 1 and 2”; the “AF488+ CD11b+ cells in the blood (FIG. 11D)” value was “significant number of AF488^+ CD11b^+ cells on days 1 and 2”; the “AF488+ T cells in the LN (FIG. 11C)” value is on record as “significant number of AF488^+ T cells on day 1”; the “AF488+ T cells in the blood (FIG. 11F)” value was “significant number of AF488^+ T cells on days 1 and 2”. In addition, in data set [4] (setting [7]), the “AF488+ T cells in the liver (FIG. 11I)” value was “significant number of AF488^+ T cells on all days collected”; the “AF488+ dendritic cells in the LN (FIG. 11B)” value is given as “significant number of AF488^+ dendritic cells on day 1”; the “AF488+ dendritic cells in the blood (FIG. 11E)” value was “significant number of AF488^+ dendritic cells on days 1 and 2”; the “AF488+ dendritic cells in the liver (FIG. 11H)” value was “significant number of AF488^+ dendritic cells on days 1, 2, and 5”. In addition, the “AF488+ monocytes in the liver (FIG. 11G)” value in data set [4] (setting [7]) was “significant number of AF488^+ monocytes on days 1, 2, and 5”. Further, in data set [4] (0.1 mg AF488 s.c., days 1 to 7), the “AF488 release into and clearance from the LN (FIGS. 11A-C)” value is “quickly peaked at day 1 and AF488 was cleared by day 5-7”. In addition, in data set [4] (blood, days 1-2), the “circulating CD11b+ cells being AF488+” value is “over 70%”.
